From US20240287123A1 (Victoria Link Limited, priority 2021, published 2024) come the findings set out here.

Entries after “also recorded” stand apart in the source; their conditions may differ. Like-named read-outs stand apart in the source and are kept apart here.

A short description of data set [1]: Cytotoxicity in HFF cells (CellTiter-Glo), concurrent with HCMV assay. The class given is cell-based. The note with it: human. The procedure: Human foreskin fibroblast (HFF) cells prepared from human foreskin tissue were obtained from the University of Alabama at Birmingham tissue procurement facility with approval from its IRB. The tissue was incubated at 4° C. for 4 h in Clinical Medium consisting of minimum essential media (MEM) with Earl's salts supplemented with 10% fetal bovine serum (FBS) (Hyclone, Inc. Logan UT), L-glutamine, fungizone, and vancomycin. Tissue was then placed in phosphate buffered saline (PBS), minced, rinsed to remove the red blood cells, and resuspended in trypsin/EDTA solution. The tissue suspension was incubated at 37° C. and gently agitated to disperse the cells, which were collected by centrifugation. Cells were resuspended in 4 ml Clinical Medium and placed in a 25 cm^2 flask and incubated at 37° C. in a humidified CO2 incubator for 24 h. The media was then replaced with fresh Clinical Medium and the cell growth was monitored daily until a confluent monolayer had formed. The HFF cells were then expanded through serial passages in standard growth medium of MEM with Earl's salts supplemented with 10% FBS, L-glutamine, penicillin, and gentamycin. The cells were passaged routinely and used for assays at or below passage ^10.37,38
(§1) Each experiment that evaluates the antiviral activity of compounds includes both positive and negative control compounds to ensure the performance of each assay. Concurrent assessment of cytotoxicity was also performed for each study in the same cell line and with the same compound exposure.
Assays were performed in monolayers as described.37 Cells were seeded in 384 well plates and incubated for 24 h to allow the formation of confluent monolayers. Dilutions of test drug were prepared directly in the plates and the monolayers infected at a predetermined MOI based on virus used. After incubation, cytopathology was determined by the addition of CellTiter-Glo (CTG) reagent. Concentrations of test compound sufficient to reduce CPE by 50% (EC50) or decrease cell viability by 50% (CC50) were interpolated using standard methods in Microsoft Excel. Toxicity was measured using CTG as above.

Data set [2] deals with EBV (Akata/Akata). In words: EBV assay: viral DNA quantification in induced Akata cells. In kind it is cell-based, Epstein-Barr virus. The note with it: for EC50: human gammaherpesvirus 4, Akata. The procedure:
Akata cells were obtained from Louisiana State University, Baton Rouge, LA. The HCMV strain AD169 was obtained from the American Type Culture Collection (ATCC, Manassas, VA). Akata cells latently infected with EBV were obtained from Louisiana State University, Baton Rouge, LA.
as §1
Assays for EBV were performed by reported methods.^37 Akata cells were induced to undergo a lytic infection with 50 μg/ml of a goat anti-human IgG antibody. Experimental compounds were diluted within plates. The cells were added and incubated for 72 h. Similar plates were initiated without virus induction/addition and used for measuring cytotoxicity by the addition of CTG. For all assays, the replication of the virus was assessed by the quantification of viral DNA. For EBV, primers 5′-[…]-3′ and 5′-CAG TTC CTC GCCTTAGGTTG-3 amplified a fragment corresponding to coordinates 96802-97234 in EBV genome (AJ507799). Compound concentrations sufficient to reduce genome copy number by 50% were calculated from experimental data as well as compound cytotoxicity.

The nature of data set [3]: Cytotoxicity in Akata cells (CTG), concurrent with EBV assay. The class given is cell-based. The note with it: human, Akata cells (without virus induction), Table 1. As to the method: as §1
Assays for EBV were performed by reported methods.^37 Akata cells were induced to undergo a lytic infection with 50 μg/ml of a goat anti-human IgG antibody. Experimental compounds were diluted within plates. The cells were added and incubated for 72 h. Similar plates were initiated without virus induction/addition and used for measuring cytotoxicity by the addition of CTG. For all assays, the replication of the virus was assessed by the quantification of viral DNA. […] Compound concentrations sufficient to reduce genome copy number by 50% were calculated from experimental data as well as compound cytotoxicity.

Data set [4] concerns HIVADA. In words: HIV p24 alphaLISA in infected monocyte derived macrophages. The class given is cell-based, Human Immunodeficiency Virus. The procedure: Primary human MDMs were cultured from peripheral blood mononuclear cells and pre-treated for 24 h with ddhC (100 μM), compound 8 (100 μM), compound 21 (100 μM), emtricitabine control (15 μM, 10 μM, 1 μM, 0.1 μM), or the drug vehicle, DMSO. MDM were then infected with HIVADA in the presence of these compounds and treated daily (with compound), while culture supernatants were collected to quantify levels of HIV p24, a viral capsid protein, on days 2-7 of infection.
Leukopaks from healthy donors were obtained from the New York Blood Center and processed by Ficoll gradient centrifugation to isolate peripheral blood mononuclear cells (PBMC). These PBMC were cultured adherently into monocyte derived macrophages (MDM), according to published protocols, on 60 mm dishes for 6 days with 10-20 ng/ml macrophage colony stimulating factor (M-CSF). MDM were pre-treated with ddhC, compound 8, compound 21, emtricitabine (Cat. No .: 10071), or DMSO vehicle at indicated concentrations for 24 hours (NIH AIDS Reagent Program, Bethesda, MD). Cells were left uninfected or infected for 24 h in the presence of one of the compounds listed above with 20 ng/mL HIVADA, a macrophage-tropic HIV strain originally derived from a person with HIV (NIH). Media was changed daily with the mentioned compounds added each time, and supernatants were collected on days 2, 3, 4, 5, 6, and 7 of infection. Each treatment condition was analyzed in duplicate plates per experiment.
Supernatant samples were analyzed for the viral capsid protein, HIV p24, by a sensitive p24 alphaLISA according to the manufacturer's protocol (Perkin-Elmer, Waltham, MA). Treatment conditions were analyzed in duplicate plates, and each supernatant was analyzed in duplicate on a 96-well alphaLISA plate. These were then fit to a sigmoid standard curve to extrapolate HIV p24 levels in pg/mL within the assay limits of detection.
In general terms: Alpha assays give light when donor and acceptor beads are brought close together.

As usually defined, the CC50 is the concentration giving 50% cytotoxicity. Read a low CC50 as greater toxicity to the cells. Consider `CC(C)C(=O)OCC1=C[C@@H](O)[C@H](n2ccc(N)nc2=O)O1` [Compound 8, 3′-Deoxy-3′,4′-didehydro-5′-O-isobutyroyl-cytidine], for which the CC50 in data set [1] was > 50 µM. Also, in data set [2] (cell-based assay, highest concentration tested in primary assays 50 μM), the “activity against EBV” value is on record as “performed most favourably”. In addition, the EC50 was 7.6 µM in data set [2] (Akata/Akata, Table 1, read-out: EBV EC50); 7.59 µM in data set [2] (read-out: Result for compound (EC50/UM), EBV Akata/Akata, assay order Primary); 7.6 to 38.7 µM in data set [2] (read-out: EC50 against EBV). Also, the CC50 at 72 h in data set [3] is > 50 µM. Also, the “reduction of p24 levels” value in data set [4] (10 μM, by day 6 of infection) was ~50%. Moreover, in data set [4] (100 μM, infected MDM, days 2-7, compared with DMSO control), the “levels of HIV p24 viral capsid protein” value is listed as “significantly reduce; also recorded: significantly decreased”. Also, the “impact on HIV replication relative to the DMSO control” value in data set [4] (low doses: compound 8 compound 21 (0.1-1 μM) as printed) is “minimal impact”.
